Literature values, collected in patent US5360794A, “Disubstituted and deoxy disubstituted derivatives of α-D-mannofuranosides and β-L-gulofuranosides having anti-inflammatory and anti-proliferative activity” (Medicarb Inc., priority 1992, dated 1994).
Where a name gives a salt, the structure may show the parent alone.

Test system: rheumatoid arthritis
Conditions: late Phase III clinical trials; cited from earlier work

In the case of `CN(C)CCCO[C@@H]1[C@H]2OC(C)(C)O[C@H]2O[C@@H]1[C@H](O)CO` [Amiprilose HCl, 1,2-O-isopropylidene-3-O-3'-(N', N'-dimethylaminopropyl)-α-D-glucofuranose], the “clinical utility in rheumatoid arthritis” value is given as “demonstrated utility in managing the signs and symptoms of rheumatoid arthritis”.
